Biological target: T1, human kinase Mps-1 (Homo sapiens, UniProt P33981)
T1 construct: N-terminally GST-tagged human full length recombinant Mps-1 kinase; GST (N); purchased Invitrogen, Karslruhe, Germany PV4071
T1 sequence (P33981 1-857): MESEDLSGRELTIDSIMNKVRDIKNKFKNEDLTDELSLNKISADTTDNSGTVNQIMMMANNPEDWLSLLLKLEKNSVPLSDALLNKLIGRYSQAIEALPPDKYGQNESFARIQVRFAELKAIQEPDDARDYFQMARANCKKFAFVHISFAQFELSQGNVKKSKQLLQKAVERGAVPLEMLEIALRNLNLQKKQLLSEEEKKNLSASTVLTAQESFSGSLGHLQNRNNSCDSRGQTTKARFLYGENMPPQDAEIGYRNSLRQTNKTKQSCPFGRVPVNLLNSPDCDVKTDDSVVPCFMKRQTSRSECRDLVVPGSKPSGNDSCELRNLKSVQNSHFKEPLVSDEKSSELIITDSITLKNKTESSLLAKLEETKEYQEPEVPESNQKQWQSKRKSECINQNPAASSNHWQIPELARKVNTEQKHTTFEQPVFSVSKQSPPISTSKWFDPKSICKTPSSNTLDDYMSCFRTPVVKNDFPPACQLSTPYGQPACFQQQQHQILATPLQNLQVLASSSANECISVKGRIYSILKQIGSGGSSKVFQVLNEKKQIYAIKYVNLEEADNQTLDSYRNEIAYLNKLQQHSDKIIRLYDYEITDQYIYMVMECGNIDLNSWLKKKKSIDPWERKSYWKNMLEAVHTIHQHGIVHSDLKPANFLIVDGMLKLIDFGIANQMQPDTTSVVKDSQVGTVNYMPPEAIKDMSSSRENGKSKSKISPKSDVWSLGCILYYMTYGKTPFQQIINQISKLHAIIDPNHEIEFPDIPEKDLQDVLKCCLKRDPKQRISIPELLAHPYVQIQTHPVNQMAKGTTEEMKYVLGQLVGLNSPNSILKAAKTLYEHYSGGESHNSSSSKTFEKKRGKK
Assay: Mps-1 kinase assay (TR-FRET)
Assay type: biochemical
Settings: N-terminally GST-tagged human full length recombinant Mps-1; 10 μM ATP; 1 μM peptide substrate; 60 min at 22° C.; read-out: MPS1 Inhibition, IC50 in M
Method: The human kinase Mps-1 phosphorylates a biotinylated substrate peptide. Detection of the phosphorylated product is achieved by time-resolved fluorescence resonance energy transfer (TR-FRET) from Europium-labelled anti-phospho-Serine/Threonine antibody as donor to streptavidin labelled with cross-linked allophycocyanin (SA-XLent) as acceptor. Compounds are tested for their inhibition of the kinase activity.
N-terminally GST-tagged human full length recombinant Mps-1 kinase (purchased from Invitrogen, Karslruhe, Germany, cat. no PV4071) was used. […]
The resulting mixture was incubated 1 h at 22° C. to allow the binding of the phosphorylated peptide to the anti-phospho(Ser/Thr)-Europium-antibody. Subsequently the amount of phosphorylated substrate was evaluated by measurement of the resonance energy transfer from the Europium-labelled anti-phospho(Ser/Thr) antibody to the Streptavidin-XLent. Therefore, the fluorescence emissions at 620 nm and 665 nm after excitation at 350 nm was measured in a Viewlux TR-FRET reader (PerkinElmer LAS, Rodgau-Jügesheim, Germany). The “blank-corrected normalized ratio” (a Viewlux specific readout, similar to the traditional ratio of the emissions at 665 nm and at 622 nm, in which blank and Eu-donor crosstalk are subtracted from the 665 nm signal before the ratio is calculated) was taken as the measure for the amount of phosphorylated substrate. […]

Cc1c(-c2ccc(NC(=O)Cc3ccccc3)cc2)ccc2nc(Nc3ccccc3C#N)nn12 [Example 1.1, N-(4-{2-[(2-cyanophenyl)amino]-5-methyl[1,2,4]triazolo[1,5-a]pyridin-6-yl}phenyl)-2-phenylacetamide]
IC50: 1.8 nM

Reference: patent publication US8551980B2, “Substituted triazolopyridines” (Bayer Intellectual Property GmbH, priority 2009, dated 2013)
